From ChEMBL document CHEMBL4811234, “Dihydro-β-agarofuran-Type Sesquiterpenoids from the Seeds of Celastrus virens and Their Multidrug Resistance Reversal Activity against the KB/VCR Cell Line” (J Nat Prod, 2021) come the findings set out here.

Data set [1] can be described thus: Cytotoxicity against human KB/VCR cells assessed as inhibition of cell proliferation at 20 uM measured after 72 hrs by CCK8 assay relative to control. Format: cell-based.
Data set [2] is described as follows: Cytotoxicity against human KB/VCR cells assessed as inhibition of cell proliferation at 2 uM measured after 72 hrs by CCK8 assay relative to control. It counts as cell-based.

Each structure is given as a SMILES string.

With `CC(=O)OC[C@]12[C@H](OC(C)=O)C(=O)[C@@H]3[C@@H](O)[C@]1(OC3(C)C)[C@H](C)[C@@H](OC(C)=O)[C@H](OC(C)=O)[C@@H]2OC(C)=O`, in data set [1], the inhibition at 72 h, 20 µM turned out to be 2.6%. Moreover, the inhibition at 72 h, 2 µM in data set [2] is 1.6%.
On to `CC(=O)O[C@H]1[C@@H]2[C@@H](OC(=O)/C=C/c3ccccc3)[C@]3(OC2(C)C)[C@H](C)C[C@@H](OC(C)=O)[C@H](OC(C)=O)[C@@]3(C)[C@H]1OC(=O)c1ccccc1`, for which the inhibition at 72 h, 20 µM in data set [1] was -3%. In data set [2], the inhibition at 72 h, 2 µM is -0.6%.
The like results for `CC(=O)O[C@@H]1C[C@@H](C)[C@]23OC(C)(C)[C@H](C[C@H](OC(=O)c4ccccc4)[C@]2(C)[C@H]1OC(C)=O)[C@H]3OC(=O)/C=C/c1ccccc1` were, in that order, 81.8% and -5.3%.
`CC(=O)O[C@H]1[C@@H]2[C@@H](OC(C)=O)[C@]3(OC2(C)C)[C@H](C)C[C@@H](OC(C)=O)[C@H](OC(C)=O)[C@@]3(C)[C@H]1OC(=O)c1ccccc1`: the inhibition at 72 h, 20 µM in data set [1] was -2%. Also, in data set [2], the inhibition at 72 h, 2 µM was -1.2%.
Regarding `COc1cc2c(cc1OC)CN(CCc1ccc(-n3nnc(-c4cc(OC)c(OC)cc4NC(=O)c4cc(=O)c5ccccc5o4)n3)cc1)CC2`, the inhibition at 72 h, 2 µM in data set [2] was determined as 23.1%.
Regarding `CC(=O)O[C@@H]1[C@@H]2[C@@H](OC(C)=O)[C@]3(OC2(C)C)[C@H](C)C[C@@H](OC(C)=O)[C@H](OC(C)=O)[C@@]3(C)[C@@H]1OC(=O)c1ccccc1`, the inhibition at 72 h, 20 µM in data set [1] is -1.5%. In addition, in data set [2], the inhibition at 72 h, 2 µM was 2.7%.
As to `CC(=O)O[C@@H]1C[C@@H](C)[C@]23OC(C)(C)[C@H]([C@@H](O)[C@H](OC(=O)c4ccccc4)[C@@]2(C)[C@H]1OC(C)=O)[C@H]3OC(=O)/C=C/c1ccccc1`, in data set [1], the inhibition at 72 h, 20 µM was found to be 78.7%. Moreover, the inhibition at 72 h, 2 µM in data set [2] was determined as 3.3%.
Regarding `CC(=O)OC[C@]12[C@H](OC(C)=O)C(=O)[C@@H]3[C@@H](OC(C)=O)[C@]1(OC3(C)C)[C@H](C)[C@@H](O)[C@H](OC(C)=O)[C@@H]2OC(C)=O`, the inhibition at 72 h, 20 µM in data set [1] turned out to be 9.2%. For the same compound, the inhibition at 72 h, 2 µM in data set [2] is -5.3%.
The matching figures for `CC(=O)O[C@@H]1[C@@H]2[C@@H](OC(C)=O)[C@]3(OC2(C)C)[C@H](C)CC[C@H](OC(C)=O)[C@@]3(C)[C@H]1OC(=O)c1ccccc1`: 3.2% and 2.4%.
The matching figures for `CC(=O)OC[C@]12[C@H](OC(C)=O)C(=O)[C@@H]3[C@@H](OC(C)=O)[C@]1(OC3(C)C)[C@H](C)C[C@H](O)[C@@H]2OC(C)=O`: 2.6% and -2%.
On to `CC(=O)O[C@H]1CC[C@@H](C)[C@]23OC(C)(C)[C@H](C[C@H](OC(=O)c4ccccc4)[C@]12C)[C@H]3OC(=O)c1ccccc1`, for which, in data set [1], the inhibition at 72 h, 20 µM stood at 77.9%. Also, the inhibition at 72 h, 2 µM in data set [2] was -1.8%.
The matching figures for `CC(=O)O[C@H]1C[C@@H](C)[C@]23OC(C)(C)[C@H](C[C@H](OC(=O)c4ccccc4)[C@@]2(C)[C@@H]1OC(C)=O)[C@H]3OC(=O)c1ccccc1`: 57.9% and 0%.
Take `CC(=O)O[C@@H]1[C@@H]2[C@@H](OC(C)=O)[C@]3(OC2(C)C)[C@H](C)CC[C@H](OC(C)=O)[C@@]3(C)[C@@H]1OC(=O)c1ccccc1`: the inhibition at 72 h, 20 µM in data set [1] came to 2.4%. Besides, the inhibition at 72 h, 2 µM in data set [2] was 1.6%.
The like results for `CC(=O)O[C@@H]1[C@@H]2[C@@H](OC(C)=O)[C@]3(OC2(C)C)[C@H](C)C[C@H](OC(=O)/C=C/c2ccccc2)[C@H](OC(C)=O)[C@@]3(C)[C@@H]1OC(=O)c1ccccc1` were, in that order, -12.8% and 0.7%.
As for `CC(=O)O[C@H]1CC[C@@H](C)[C@]23OC(C)(C)[C@H](C[C@H](OC(=O)c4ccccc4)[C@]12C)[C@H]3OC(C)=O`, in data set [1], the inhibition at 72 h, 20 µM was 0.7%. For the same compound, the inhibition at 72 h, 2 µM in data set [2] is -1.1%.
The matching figures for `CC(=O)O[C@H]1[C@@H]2[C@@H](OC(=O)c3cccnc3)[C@]3(OC2(C)C)[C@H](C)C[C@H](OC(C)=O)[C@@H](OC(C)=O)[C@@]3(C)[C@H]1OC(=O)c1ccccc1`: -6.7% and -3%.
`CC(=O)OC[C@]12[C@H](OC(C)=O)C(=O)[C@@H]3[C@@H](O)[C@]1(OC3(C)C)[C@H](C)[C@@H](O)[C@H](OC(C)=O)[C@@H]2OC(C)=O`: the inhibition at 72 h, 20 µM in data set [1] was 1.5%. Also, the inhibition at 72 h, 2 µM in data set [2] was -0.5%.
As for `CC(=O)O[C@H]1[C@@H]2[C@@H](OC(=O)/C=C/c3ccccc3)[C@]3(OC2(C)C)[C@H](C)C[C@H](O)[C@H](OC(C)=O)[C@@]3(C)[C@H]1OC(=O)c1ccccc1`, the inhibition at 72 h, 20 µM in data set [1] came out at 76.9%. Also, the inhibition at 72 h, 2 µM in data set [2] is -20.3%.
For `CC(=O)O[C@@H]1[C@H]2[C@H](O)[C@H](OC(=O)c3ccccc3)[C@]3(C)[C@@H](OC(C)=O)[C@H](O)C[C@@H](C)[C@@]13OC2(C)C`, the inhibition at 72 h, 20 µM in data set [1] is -2.1%. Also, in data set [2], the inhibition at 72 h, 2 µM is -1.9%.
`CCCCCC(=O)O[C@@H]1[C@@H]2[C@@H](OC(C)=O)[C@]3(OC2(C)C)[C@H](C)C[C@@H](OC(C)=O)[C@H](OC(C)=O)[C@@]3(C)[C@H]1OC(=O)c1ccccc1`: the inhibition at 72 h, 20 µM in data set [1] was -1.9%. For the same compound, the inhibition at 72 h, 2 µM in data set [2] is -3.1%.
